In test [1] the test system is HT-29 tumoroids. In words: CellTiter-Glo viability, tumoroids on 3D fibrous scaffold. The conditions noted are these: scaffold culture; nine drugs at 0.1-20 μM, 72 hours.
Method: HT-29 cells were cultured in the 3D fibrous scaffold from day 1 to day 7, at which point the nine FDA-approved anticancer drugs were individually added to the cells at concentrations of 0.1, 1, 10, and 20 μM. The cells were incubated for an additional 72 hours, at which point viability of the cells was quantitated using Celltiter-Glo assay (Promega) according to the manufacturer's protocol. Raw luminescence values of the treated groups were normalized to the average of the untreated controls and graphed in GraphPad Prism.
HT-29 cells were either grown in the standard 2-dimensional (2D) monolayer culture or in a 3-dimensional (3D) culture system using a novel fibrous scaffold. […] The monolayer cells and the 3D tumoroids were independently treated with increasing concentrations of nine FDA approved anti-cancer drugs. After 72 hours post-treatment a Presto Blue Cell Viability Assay (for monolayer) and CellTiter-Glo Viability Assay (for tumoroids) were used to quantitate the drug-induced cell death. The drug treated viability readings were normalized to the viability readings from untreated control.
Test [2] relates to HT-29 cells. The test is described as follows: Presto Blue cell viability, 2D monolayer. The note with it: monolayer culture; nine drugs at 0.1-20 μM, 72 hours.
Method: HT-29 cells were cultured in 2D monolayer for 24 hours. After 24 hours, the nine FDA-approved anticancer drugs were individually added to the cells at concentrations of 0.1, 1, 10, and 20 μM, and the cells were incubated for 72 hours, at which point viability of the cells was quantitated using Presto Blue assay (Life Technologies) according to the manufacturer's protocol. Raw fluorescence values of the treated groups were normalized to the average of the control and graphed in GraphPad Prism.
HT-29 cells were cultured in 2D monolayer for 24 hours. After 24 hours, the nine FDA-approved anticancer drugs were individually added to the cells at concentrations of 0.1, 1, 10, and 20 μM, and the cells were incubated for 72 hours, at which point viability of the cells was quantitated using Presto Blue assay (Life Technologies) according to the manufacturer's protocol. Raw fluorescence values of the treated groups were normalized to the average of the untreated controls and graphed in GraphPad Prism.
HT-29 cells were either grown in the standard 2-dimensional (2D) monolayer culture or in a 3-dimensional (3D) culture system using a novel fibrous scaffold. […] The monolayer cells and the 3D tumoroids were independently treated with increasing concentrations of nine FDA approved anti-cancer drugs. After 72 hours post-treatment a Presto Blue Cell Viability Assay (for monolayer) and CellTiter-Glo Viability Assay (for tumoroids) were used to quantitate the drug-induced cell death. The drug treated viability readings were normalized to the viability readings from untreated control. The percent viability was used to calculate the IC50 values of all the nine drugs in HT-29 cells.
Test [3] concerns MCF-7 cells. The test is described as follows: Presto-blue cell viability, monolayer culture. The conditions noted are these: for potency in high throughput screening: NCI Oncology set, 4 point log-dose 0.1 to 100 μM, 72 hrs.
Method: (§4) (B) MCF-7 and MCF-7/dox cells were cultured on or on scaffold for 6 days and then cells were treated with increasing concentration of Doxorubicin. Forty-eight hrs post-treatment, cell viability was analyzed using presto-blue as per manufacturer's instructions. The % cell death was analyzed and the IC50 calculated using Graph Pad Prism. Data are represented as Mean±SEM of three independent experiments performed in triplicates (*p<0.05).
(§5) (A) MCF-7 and (B) MCF-7/dox cells were cultured on monolayer and then treated with increasing concentration of compounds from NCI Approved Oncology Drugs Set VII. Forty-eight hrs post-treatment, cell viability was analyzed using presto-blue as per manufacturer's instructions. The % cell death was analyzed and the IC50 calculated using Graph Pad Prism. Data are represented as Mean of experiments performed in triplicates.
(§6) To conduct a high through put screening for compounds that induce cell death in breast cancer, the FDA-approved Oncology Diversity set was obtained from NCI in 96 well plate format with each well containing 20 μl of 10 mM drug stock. All different cell lines were cultured either in regular 96 wells plate without scaffold (served as monolayer) and with FiSS (scaffold culture) in complete medium. […] Drugs were added in triplicates with varying concentrations. The cells were incubated for 72 hrs in a humidified atmosphere under 5% CO2 at 37° C., then cell viability was measured using Presto-blue (Fisher Scientific). […] MCF-7 ad MCF-7/dox were used in a monolayer in a 96 well plate, and then treated with a NCI Oncology diversity set containing FDA-approved anti-cancer drugs. Each drug was used in a 4 point log-dose from 0.1 to 100 μM. Untreated cells were used as control and the cell death was estimated at the end of 72 hrs post-treatment.
For test [4], the system named is MCF-7/dox tumoroids. In words: Presto-blue cell viability, tumoroids on FiSS scaffold.
Method: (§7) (A) MCF-7 and MCF-7/dox cells were cultured on the scaffold for 6 days and then visualized using Nuc-blue. (B) MCF-7 and MCF-7/dox cells were cultured on or on scaffold for 6 days and then cells were treated with increasing concentration of Doxorubicin. Forty-eight hrs post-treatment, cell viability was analyzed using presto-blue as per manufacturer's instructions. The % cell death was analyzed and the IC50 calculated using Graph Pad Prism. Data are represented as Mean±SEM of three independent experiments performed in triplicates (*p<0.05).
(§8) MCF-7 and MCF-7/dox cells were cultured on monolayer or on scaffold in normoxia or hypoxia for 6 days. At the end of culture period, the monolayer cells and tumoroids were treated with increasing concentration of Actinomycin D. Forty-eight hrs post-treatment, cell viability was analyzed using presto-blue as per manufacturer's instructions. The % cell death was analyzed and the IC50 calculated using Graph Pad Prism. Data are represented as Mean±SEM of three independent experiments performed in triplicates (*p<0.05).
(§9) To conduct a high through put screening for compounds that induce cell death in breast cancer, the FDA-approved Oncology Diversity set was obtained from NCI in 96 well plate format with each well containing 20 μl of 10 mM drug stock. All different cell lines were cultured either in regular 96 wells plate without scaffold (served as monolayer) and with FiSS (scaffold culture) in complete medium. For scaffold culture, 75% medium was carefully removed and replaced with 150 μl of fresh medium every alternate day. After five/six days of scaffold culture, cells were stained with NucBlue (Fisher Scientific) to check if tumoroids had formed. Drugs were added in triplicates with varying concentrations. The cells were incubated for 72 hrs in a humidified atmosphere under 5% CO2 at 37° C., then cell viability was measured using Presto-blue (Fisher Scientific).
The test system of test [5] is MCF-7/dox cells. In words: Presto-blue cell viability, monolayer culture. The note with it: for potency in high throughput screening: NCI Oncology set, 4 point log-dose 0.1 to 100 μM, 72 hrs.
Method: as §4, §5, §6
In test [6] the test system is MCF-7 tumoroids. The test is described as follows: Presto-blue cell viability, tumoroids on FiSS scaffold.
Method: as §7, §8, §9
The subject of test [7] is BT474 cells. In words: Presto-blue cell viability, breast cancer cell panel. The conditions noted are these: read-out: BT474 (IC50); Table 1, validation of hits in breast cancer cell panel.
Method: (§10) All different cell lines were cultured either in regular 96 wells plate without scaffold (served as monolayer) and with FiSS (scaffold culture) in complete medium. For scaffold culture, 75% medium was carefully removed and replaced with 150 μl of fresh medium every alternate day. After five/six days of scaffold culture, cells were stained with NucBlue (Fisher Scientific) to check if tumoroids had formed. Drugs were added in triplicates with varying concentrations. The cells were incubated for 72 hrs in a humidified atmosphere under 5% CO2 at 37° C., then cell viability was measured using Presto-blue (Fisher Scientific).
Test [8] has as its system Sox2 in MCF-7/dox tumoroids. In words: Sox2 expression in tumoroids after drug treatment (western blot / RT-PCR). The format is cell-based, human. As to the method:
(§1) MCF-7 and MCF-7/dox were allowed to form tumoroids on scaffold for 6 days following which they were exposed to Actinomycin D for 24 hrs. At the end of 24 hrs the tumoroids were dissociated and processed for either western blotting (A) or real-time RT-PCR (B). Sox2 protein and transcript levels were analyzed and normalized to HPRT (C) Second generation MCF-7 tumoroids were cultured in a 96 well plate for 6 days. Tumoroids were treated with increasing concentrations of Actinomycin D on day 4 in groups of 4 wells. After a 48 hr treatment, cell viability was assayed using Cell Titer Glo(Promega) on day 6. Viability was calculated as a percent of control untreated wells and graphed using Graph Pad Prism software. (D) Tumoroids were treated with Actinomycin D for 48 hr. Following treatment tumoroids were dissociated and cells were co-stained using FITC conjugated CD44 antibody and Alexa Fluor-647 conjugated CD24 antibody. CD44^highCD24^low stem-like populations in MCF7 tumoroids were assessed by flow cytometer. Data was collected using a BD FACS Canto 2 flow cytometer.
(§2) MCF-7 and MCF-7/dox cells were seeded as monolayer and 3D tumoroid cultures in 96 well plates. […] Collagenase was used to detach the cells from the plate/scaffold platform. The cell pellet was resuspended in RIPA buffer and vortexed for 30 min followed by centrifugation at 4° C. at 13000 rpm to collect the protein extract. Protein content was determined by using BCA method and followed for western blot procedure. Antibodies for Nanog, Oct 4a, Sox2, and GAPDH/HPRT were obtained from Cell Signaling.
(§3) To determine the effects of Actinomycin D on the Sox2 protein levels in both MCF-7 and MCF-7/dox cell lines, MCF7 wt and MCF7-dox cells were seeded as monolayer and 3D tumoroid cultures (both in controls and cobalt chloride (CoCl2) scaffold cultures) in 96 well plates. […] Collagenase was used to detach the cells from the plate/scaffold platform. The cell pellet was then dissolved in trizol and RNA was isolated. RT-PCR was performed using 2 step process namely 1) cDNA synthesis using DNAase-1 treated RNA and 2) PCR was performed using primers of the gene of interest. […] The decrease in Sox2 expression was 2 fold in both the cell lines tested when compared to the control untreated tumoroids (2.05 vs. 0.75 pixel density in MCF-7 and 1.05 vs. 0.5 pixel density in MCF-7/dox) (FIG. 8B). […] Actinomycin D targets and down-regulates the expression of Sox2 resulting in depletion of stem-like cell population, which hampers the breast cancer cell's ability to initiate spheroids.

Test [9] relates to Sox2 in MCF-7 tumoroids. The description is as above. The class given is cell-based, human. As to the method:
as §1, §2, §3

For test [10], the system named is CD44highCD24low cells in MCF-7 tumoroids. In words: Flow cytometry of CD44highCD24low stem-like population in tumoroids. The class given is cell-based, human. The note with it: 48 hr treatment, compared to untreated controls. As to the method:
as §1
To further investigate the potential of the FiSS for use in cancer drug discovery by characterizing the BCSCs within the tumoroids, MCF-7 cells were seeded onto scaffolds in 6 well plates at 240,000 cells per well. Cells were cultured for 6 days in RPMI media to form primary tumoroids. […]

Test [11] deals with Second generation MCF-7 tumoroids. In words: Cell Titer Glo viability of second generation tumoroids. The class given is cell-based, human. The conditions noted are these: 48 hr treatment. As to the method:
as §1

In test [12] the test system is MDA-MB-231 cells. In words: Presto-blue cell viability, breast cancer cell panel. The conditions noted are these: read-out: MDA-MB-231 (IC50); Table 1, validation of hits in breast cancer cell panel.
Method: as §10
Where [13] appears, read: read-out: MCF7-WT (IC50), Table 1, validation of hits in breast cancer cell panel.
Setting [14] is: read-out: MCF7-DOX (IC50), Table 1, validation of hits in breast cancer cell panel.

Where a name gives a salt, the structure may show the parent alone. Read-outs that look alike come from different tables or passages of the source. Starred links: 1 amine or outer side, 2 acyl side, 3 side chain; linkers in the order of their positions; H or OH if unused. Positions of bridges follow the written chain, without caps; N, C: chain ends. Non-standard residues stand in square brackets, D forms with d. Residues, ends and D or L forms follow the SMILES beside them. Chains are numbered I, II in the order given. Actinocin(9to1) = Cc1c2oc3c(C)ccc(C(=O)[*:1])c3nc-2c(C(=O)[*:2])c(N)c1=O; NMeV = CN[C@H](C(=O)O)C(C)C; Sar = CNCC(=O)O

With `Nc1nc2nc[nH]c2c(=S)[nH]1` [6-thioguanine], the “rank as inhibitor of HT-29 cell viability” value (“rank as inhibitor” below) in test [1] and in [2] was “least potent inhibitors” each time.
With `COc1cccc2c1C(=O)c1c(O)c3c(c(O)c1C2=O)C[C@@](O)(C(=O)CO)C[C@@H]3O[C@H]1C[C@H](N)[C@@H](O)[C@H](C)O1` [epirubicin (hydrochloride)], the “rank as inhibitor” value in [1] and in [2] was “most potent inhibitors” each time.
`Nc1ccn([C@@H]2O[C@H](CO)[C@@H](O)[C@@H]2O)c(=O)n1` [cytarabine]: the “rank as inhibitor” value in [1] and in test [2] was “least potent inhibitors” throughout.
As to `COc1cccc2c1C(=O)c1c(O)c3c(c(O)c1C2=O)C[C@@](O)(C(=O)CO)C[C@@H]3O[C@H]1C[C@H](N)[C@H](O)[C@H](C)O1` [doxorubicin], the IC50 in test [3] (Homo sapiens, MCF7, 48 h) came to 180 ± 8 nM; in [4] (Homo sapiens, MCF7-DOX), 23100 ± 5350 nM; in test [5] (Homo sapiens, MCF7-DOX, 48 h) it was 4400 ± 280 nM; in test [6] (Homo sapiens, MCF7) it was 1310 ± 270 nM. Also, in [5] (MCF-7/dox vs MCF-7 in monolayer), the “fold more resistant than MCF-7” value stood at 24 fold.
On to `Cc1c2oc3c(C)ccc(C(=O)N[C@@H]4C(=O)N[C@H](C(C)C)C(=O)N5CCC[C@H]5C(=O)N(C)CC(=O)N(C)[C@@H](C(C)C)C(=O)O[C@@H]4C)c3nc-2c(C(=O)N[C@@H]2C(=O)N[C@H](C(C)C)C(=O)N3CCC[C@H]3C(=O)N(C)CC(=O)N(C)[C@@H](C(C)C)C(=O)O[C@@H]2C)c(N)c1=O` [Actinomycin D] (I: T[dV]P[Sar][NMeV] / II: T[dV]P[Sar][NMeV]; ester I:1-I:C, II:1-II:C; linker I:N-II:N via Actinocin(9to1)), for which the 50% inhibitory concentration (IC50) in test [3] (MCF-7 monolayer, 48 hrs post-treatment, mean±SEM) was determined as 70 ± 6 nM; in test [3] (setting [13]) it was 50 ± 10 nM; in [7], 240 ± 30 nM; in test [4] (MCF-7/dox tumoroids on scaffold, hypoxic conditions (CoCl2)), 2240 ± 460 nM; in test [4] (MCF-7/dox tumoroids on scaffold, normoxia, 6 days culture, 48 hrs treatment) it was 1660 ± 60 nM; in [5] (MCF-7/dox monolayer, 48 hrs post-treatment, mean±SEM), 37 ± 21 nM. Moreover, the IC50 was found to be 50 ± 18 nM in test [5] (setting [14]); 29 nM in test [11]; 30 ± 10 nM in test [12]; 1040 ± 70 nM in [6] (MCF-7 tumoroids on scaffold, hypoxic conditions (CoCl2)); 780 ± 250 nM in test [6] (MCF-7 tumoroids on scaffold, normoxia, 6 days culture, 48 hrs treatment). The “potency in high throughput screening” value in [3] (MCF-7 monolayer) and in test [5] (MCF-7/dox monolayer) was “high potency” in each case. Further, the Sox2 expression came out at 0.5 pixel density in test [8] (MCF-7/dox tumoroids treated 24 hrs at concentration based on IC50, untreated control 1.05) and 0.75 pixel density in test [9] (MCF-7 tumoroids treated 24 hrs at concentration based on IC50, untreated control 2.05). Further, the “decrease in Sox2 expression” value in [8] (MCF-7/dox tumoroids vs control untreated tumoroids) and in test [9] (MCF-7 tumoroids vs control untreated tumoroids) was 2 fold each time. Also, the CD44highCD24low population entry in test [10] is “decreased”.
For the compound `CO[C@@]12[C@H](COC(N)=O)C3=C(C(=O)C(C)=C(N)C3=O)N1C[C@@H]1N[C@@H]12` [Mitomycin C], the “potency in high throughput screening” value in test [3] (MCF-7 monolayer) and in test [5] (MCF-7/dox monolayer) was “high potency” in each case. Moreover, the IC50 in test [3] (setting [13]) was 170 ± 60 nM; in [7] it was 30 ± 4 nM; in test [5] (setting [14]), 120 ± 10 nM; in test [12], 30 ± 10 nM.
As for `N.N.[Cl][Pt][Cl]` [cisplatin], the “rank as inhibitor” value in test [1] and in [2] was “least potent inhibitors” in each case.
On to `COc1cccc2c1C(=O)c1c(O)c3c(c(O)c1C2=O)C[C@@](O)(C(C)=O)C[C@@H]3O[C@H]1C[C@H](N)[C@H](O)[C@H](C)O1` [daunorubicin (hydrochloride)], for which the “rank as inhibitor” value in [1] and in test [2] was “most potent inhibitors” throughout.
